Common to all, as to format: functional
The test system of experiment [1] is Pseudomonas aeruginosa. Description: Antimicrobial activity against Pseudomonas aeruginosa PAO1 infected in in vitro pharmacodynamic model assessed as bacterial killing at 4 mg/L after 24 hrs using 10^6 CFU/ml inoculum by time kill study.
The subject of experiment [2] is Pseudomonas aeruginosa. The experiment is described as follows: Antimicrobial activity against Pseudomonas aeruginosa PAO1 infected in in vitro pharmacodynamic model assessed as bacterial killing at 0 to 128 mg/L using 10^8 CFU/ml inoculum by time kill study.
The test system of experiment [3] is Pseudomonas aeruginosa. The experiment is described as follows: Antimicrobial activity against Pseudomonas aeruginosa PAO1 infected in in vitro pharmacodynamic model assessed as bacterial killing at 4 mg/L after 8 hrs using 10^6 CFU/ml inoculum by time kill study.
In experiment [4] the test system is Pseudomonas aeruginosa. The experiment is described as follows: Antimicrobial activity against Pseudomonas aeruginosa PAO1 infected in in vitro pharmacodynamic model assessed as bacterial killing up to 64 mg/L after 48 hrs using 10^7 CFU/ml inoculum by time kill study.
The test system of experiment [5] is Pseudomonas aeruginosa. Description: Antimicrobial activity against Pseudomonas aeruginosa PAO1.

Values after ≈ are worked out from the molar mass of the structure shown.

Regarding `CC(C)(O/N=C(\C(=O)N[C@@H]1C(=O)N2C(C(=O)[O-])=C(C[n+]3ccccc3)CS[C@H]12)c1csc(N)n1)C(=O)O` [CEFTAZIDIME], the log10cfu in experiment [1] is listed as 3; in experiment [2], under 0.3; in experiment [3] it was 3; in experiment [4], 1.6. The compound further came in with an MIC in experiment [5] of 2 µg/mL (≈ 3.66 µM).
